Measurements taken from PubChem BioAssay AID248 (DTP/NCI, 2004).
Toxic doses and inconclusive results are not listed. No stated cut-off is given here; in the data, active means T/C of 150% or more; inactive means T/C below 125%.

Tested on: L1210 leukemia ip in BDF1 mice, survival T/C
Assay: NCI In Vivo Anticancer Drug Screen. Data for tumor model L1210 Leukemia (intraperitoneal) in B6D2F1 (BDF1) mice
Details: endpoint: mean survival time, higher = longer survival
How it was run: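 Value reflects the ratio of survival in compound-treated mice to survival in vehicle-treated controls, with both groups carrying the same transplanted tumor.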

[1] = dose: 100.0 mg/kg/injection, schedule: Q04DX002 (ip), vehicle: Klucel (hydroxypropylcellulose) (HPC)
[2] = dose: 100.0 mg/kg/injection, schedule: Q04DX003 (ip), vehicle: saline with Tween-80
[3] = dose: 200.0 mg/kg/injection, schedule: Q04DX003 (ip), vehicle: saline with Tween-80
[4] = dose: 400.0 mg/kg/injection, schedule: Q04DX003 (ip), vehicle: saline with Tween-80
[5] = dose: 200.0 mg/kg/injection, schedule: Q04DX002 (ip), vehicle: Klucel (hydroxypropylcellulose) (HPC)
[6] = dose: 400.0 mg/kg/injection, schedule: Q04DX002 (ip), vehicle: Klucel (hydroxypropylcellulose) (HPC)
[7] = dose: 100.0 mg/kg/injection, schedule: Q04DX003 (ip), vehicle: saline
[8] = dose: 200.0 mg/kg/injection, schedule: Q04DX003 (ip), vehicle: saline
[9] = dose: 400.0 mg/kg/injection, schedule: Q04DX003 (ip), vehicle: saline

Measured: T/C

CCCCN(C(=O)C(F)(F)F)C(C)(C)C(SSSC(c1cccs1)C(C)(C)N(CCCC)C(=O)C(F)(F)F)c1cccs1 (stereo not drawn)
inactive: dose: 100.0 mg/kg/injection, schedule: Q01DX009 (ip), vehicle: saline sonified 94 % of control | dose: 100.0 mg/kg/injection, schedule: Q04DX003 (ip), vehicle: saline sonified 90 % of control | dose: 200.0 mg/kg/injection, schedule: Q01DX009 (ip), vehicle: saline sonified 96 % of control | dose: 200.0 mg/kg/injection, schedule: Q04DX003 (ip), vehicle: saline sonified 93 % of control | dose: 400.0 mg/kg/injection, schedule: Q04DX003 (ip), vehicle: saline sonified 90 % of control

O=S(=O)(CCCl)c1ccc2ccccc2c1
inactive: dose: 25.0 mg/kg/injection, schedule: Q04DX002 (ip), vehicle: Klucel (hydroxypropylcellulose) (HPC) 100 % of control | dose: 50.0 mg/kg/injection, schedule: Q04DX002 (ip), vehicle: Klucel (hydroxypropylcellulose) (HPC) 104 % of control | [1] 96 % of control

Nc1ncnc2c1c1c(N)[nH]nc1n2C1OC(CO)C(O)C1O (stereo not drawn)
inactive: dose: 12.5 mg/kg/injection, schedule: Q01DX009 (ip), vehicle: saline 114 % of control | dose: 25.0 mg/kg/injection, schedule: Q01DX009 (ip), vehicle: saline 121 % of control | dose: 100.0 mg/kg/injection, schedule: Q01DX001 (ip), vehicle: saline 104 % of control | dose: 200.0 mg/kg/injection, schedule: Q01DX001 (ip), vehicle: saline 106 % of control | dose: 400.0 mg/kg/injection, schedule: Q01DX001 (ip), vehicle: saline 121 % of control
active: dose: 50.0 mg/kg/injection, schedule: Q01DX009 (ip), vehicle: saline 150 % of control

O=c1[nH]c(C(F)(F)F)nc2c1nc1n2CCC1
inactive: dose: 100.0 mg/kg/injection, schedule: Q01DX009 (ip), vehicle: saline with Tween-80 103 % of control | [2] 91 % of control | dose: 200.0 mg/kg/injection, schedule: Q01DX009 (ip), vehicle: saline with Tween-80 102 % of control | [3] 96 % of control | dose: 400.0 mg/kg/injection, schedule: Q01DX009 (ip), vehicle: saline with Tween-80 97 % of control | [4] 86 % of control

CCOC(=O)C1(C)Nc2ccc3ccccc3c2NC1=O (stereo not drawn)
inactive: [1] 93 % of control | [5] 101 % of control | [6] 101 % of control

NC(=O)OCc1c(O)c2c(c(O)c1COC(N)=O)C(=O)C=CC2=O
inactive: dose: 6.25 mg/kg/injection, schedule: Q01DX009 (ip), vehicle: water 94 % of control | dose: 12.5 mg/kg/injection, schedule: Q01DX009 (ip), vehicle: water 92 % of control | dose: 25.0 mg/kg/injection, schedule: Q01DX009 (ip), vehicle: water 99 % of control | dose: 50.0 mg/kg/injection, schedule: Q01DX009 (ip), vehicle: water 90 % of control | dose: 100.0 mg/kg/injection, schedule: Q01DX009 (ip), vehicle: water 95 % of control

CCCCSc1cc(NS(=O)(=O)c2ccccc2)ccc1NS(=O)(=O)c1ccccc1
inactive: [2] 97 % of control | [3] 93 % of control | [4] 95 % of control

CN1CCN(Cc2cc(C(C)(C)C)cc(-c3ccccc3)c2O)CC1
inactive: [7] 92 % of control | [8] 102 % of control | [9] 110 % of control

Cc1ccc(C)c2c3c(sc12)CCCC3
inactive: dose: 100.0 mg/kg/injection, schedule: Q01DX001 (ip), vehicle: carboxymethylcellulose (CMC) 95 % of control | dose: 200.0 mg/kg/injection, schedule: Q01DX001 (ip), vehicle: carboxymethylcellulose (CMC) 90 % of control | dose: 400.0 mg/kg/injection, schedule: Q01DX001 (ip), vehicle: carboxymethylcellulose (CMC) 101 % of control

NN1CCCCCC1
inactive: [7] 102 % of control | [8] 97 % of control | [9] 94 % of control

Cc1ccc(Cl)cc1NC(=O)CCc1ccccc1
inactive: [1] 91 % of control | [5] 94 % of control | [6] 91 % of control
